Assay results from patent publication EP0112332B1, “VITAMIN D GLYCOSIDES” (THE GENERAL HOSPITAL CORPORATION, priority 1982, dated 1984).

Legend:
[1] = in vivo, dosed parenterally and daily; cited from earlier work
[2] = tested on: Intestinal calcium transport; assay: Intestinal calcium transport by the everted gut sac technique after oral dosing of vitamin D deficient rats; type: in vivo; details: for I/O (inside Ca⁴⁵/outside Ca⁴⁵) ± S.D.: 24 hours later, vehicle 1.6 ± 0.3; for stimulating intestinal calcium absorption (result in words): summary of the table data, oral dosing of rats
Experimental: (§1) The vitamin D₃, 3β-glucoside vitamin D₃, 3α-glucoside and the vitamin D₃, 3β glucoside acetate were tested for biological activity. Male weanling rats from Holtzmann Company, Madison, Wisconsin, U.S.A., were fed a vitamin D deficient diet that was adequate in phosphorus and low in calcium (0.02%) for 3-1/2 weeks. Groups of five animals received orally either 4 µg, 1 µg, 0.5 µg, 0.25 µg of Vitamin D₃ -3β- glucoside, 1 µg Vitamin D₃ -3α- glucoside or 2 µg Vitamin D₃ -3β- glucoside acetate in 50 µl of 95% ethanol or vehicle alone. 24 hours later the animals were sacrificed and the small intestine and blood were collected. Intestinal calcium transport studies were performed by the everted gut sac technique, and blood was used for serum calcium determinations.

[3] = Serum calcium determination (bone calcium mobilization) after oral dosing of vitamin D deficient rats on low calcium diet; type: in vivo
Experimental: as §1

SMILES	times more potent than D₃ [1]	times more potent than the monohydroxy form of the vitamin [1]	I/O (inside Ca⁴⁵/outside Ca⁴⁵) ± S.D. ([2]; 2 µg orally in 50 µl of 95% ethanol)	stimulating intestinal calcium absorption (result in words) [2]	Serum Calcium ± S.D. ([3]; 4 µg orally in 50 µl of 95% ethanol, 24 hours later, vehicle 4.3 ± 0.2)	stimulating bone calcium mobilization (result in words) ([3]; summary of the table data, oral dosing of rats)	I/O (inside Ca⁴⁵/outside Ca⁴⁵) ± S.D. ([2]; 0.25 µg orally in 50 µl of 95% ethanol)	I/O (inside Ca⁴⁵/outside Ca⁴⁵) ± S.D. ([2]; 0.5 µg orally in 50 µl of 95% ethanol)	I/O (inside Ca⁴⁵/outside Ca⁴⁵) ± S.D. ([2]; 1 µg orally in 50 µl of 95% ethanol)	I/O (inside Ca⁴⁵/outside Ca⁴⁵) ± S.D. ([2]; 4 µg orally in 50 µl of 95% ethanol, male weanling rats, vitamin D deficient low calcium diet)
C=C1/C(=C\C=C2/CCC[C@]3(C)[C@@H]([C@H](C)CCCC(C)(C)O)CC[C@@H]23)C[C@@H](O)C[C@@H]1O [1α, 25-(OH)₂D₃]	5-10 times	2-5 times	–	–	–	–	–	–	–	–
C=C1CC[C@H](O[C@@H]2O[C@H](COC(C)=O)[C@@H](OC(C)=O)[C@H](OC(C)=O)[C@H]2OC(C)=O)C/C1=C/C=C1\CCC[C@]2(C)[C@@H]([C@H](C)CCCC(C)C)CC[C@@H]12 [Vitamin D₃ 3β- glucoside acetate, 9,10-secocholesta-5,7,10(19)-trien-3β-yl-2',3',4',6'-tetra-O-acetyl -β-D-glucopyranoside]	–	–	1.7 ± 0.2	appears inactive	–	–	–	–	–	–
C=C1CC[C@H](O[C@@H]2O[C@H](CO)[C@@H](O)[C@H](O)[C@H]2O)C/C1=C/C=C1\CCC[C@]2(C)[C@@H]([C@H](C)CCCC(C)C)CC[C@@H]12 [Vitamin D₃ 3β- glucoside, 9,10-secocholesta-5,7,10(19)triene-3β-yl -β-D-glucopyranoside]	–	–	–	capable of stimulating intestinal calcium absorption	5.3 ± 0.2	capable of stimulating	2.0 ± 0.2	2.5 ± 0.2	3.6 ± 0.3	3.9 ± 0.2
